SMILES strings stand for the structures.

These results are taken from publication PMC5218480 (PLoS ONE, 2017).

The test deals with MV-4-11 cells. Description: Gene expression microarray analysis (Affymetrix PrimeView) and GSEA. The format is cell-based, human. More on the design: RFU PODN (11730768_x_at) / Fold change /veh PODN (11730768_x_at) / RFU LINC00158 (11744669_a_at) / Fold change /veh LINC00158 (11744669_a_at) / RFU DUSP10 (11751237_a_at) / Fold change /veh DUSP10 (11751237_a_at) / RFU ID3 (11757404_x_at) / Fold change /veh ID3 (11757404_x_at) / RFU PLEKHG5 (11737974_s_at) / Fold change /veh PLEKHG5 (11737974_s_at) / RFU LRRC4B (11730491_at) / Fold change /veh LRRC4B (11730491_at) / RFU GIMAP4 (11747438_a_at) / Fold change /veh GIMAP4 (11747438_a_at) / RFU KRT8 (11758183_x_at) / Fold change /veh KRT8 (11758183_x_at) / RFU CNN1 (11734310_a_at) / Fold change /veh CNN1 (11734310_a_at) / RFU VPS37D (11726825_at) / Fold change /veh VPS37D (11726825_at) / RFU C10orf10 (11716522_x_at) / Fold change /veh C10orf10 (11716522_x_at) / RFU KIR2DL2 /// KIR2DL4 /// KIR2DL5A /// KIR2DL5B /// KIR2DS1 /// KIR2DS2 /// KIR2DS3 /// KIR2DS4 /// KIR3DL3 /// KIR3DL3 /// KIR3DS1 (11738374_at) / Fold change /veh KIR2DL2 /// KIR2DL4 /// KIR2DL5A /// KIR2DL5B /// KIR2DS1 /// KIR2DS2 /// KIR2DS3 /// KIR2DS4 /// KIR3DL3 /// KIR3DL3 /// KIR3DS1 (11738374_at) / RFU C1QL1 (11718748_at) / Fold change /veh C1QL1 (11718748_at) / RFU TMPRSS4 (11747572_a_at) / Fold change /veh TMPRSS4 (11747572_a_at) / RFU HAMP (11756126_x_at) / Fold change /veh HAMP (11756126_x_at) / RFU RNFT2 (11725882_a_at) / Fold change /veh RNFT2 (11725882_a_at) / RFU NR4A2 (11747474_a_at) / Fold change /veh NR4A2 (11747474_a_at) / RFU ABCC12 (11746883_a_at) / Fold change /veh ABCC12 (11746883_a_at) / RFU TMEM136 (11760407_x_at) / Fold change /veh TMEM136 (11760407_x_at) / RFU CLDN22 /// WWC2 (11732394_at) / Fold change /veh CLDN22 /// WWC2 (11732394_at) / RFU HLA-DPB1 (11760878_x_at) / Fold change /veh HLA-DPB1 (11760878_x_at) / RFU SPINT1 (11716480_a_at) / Fold change /veh SPINT1 (11716480_a_at) / RFU GAP43 (11754022_s_at) / Fold change /veh GAP43 (11754022_s_at) / RFU A4GNT (11735810_at) / Fold change /veh A4GNT (11735810_at) / RFU PRB3 (11715151_x_at) / Fold change /veh PRB3 (11715151_x_at) / RFU TUBB4B (11761932_at) / Fold change /veh TUBB4B (11761932_at) / RFU CAPN14 (11732068_a_at) / Fold change /veh CAPN14 (11732068_a_at) / RFU TMCC2 (11721928_a_at) / Fold change /veh TMCC2 (11721928_a_at) / RFU IRGQ (11745062_a_at) / Fold change /veh IRGQ (11745062_a_at) / RFU FAM174B (11720279_a_at) / Fold change /veh FAM174B (11720279_a_at) / RFU TMPRSS4 (11748680_a_at) / Fold change /veh TMPRSS4 (11748680_a_at) / RFU FAM212B (11763350_a_at) / Fold change /veh FAM212B (11763350_a_at) / RFU PLEKHG5 (11743358_a_at) / Fold change /veh PLEKHG5 (11743358_a_at) / RFU ZSCAN30 (11745921_a_at) / Fold change /veh ZSCAN30 (11745921_a_at) / RFU CMKLR1 (11741424_a_at) / Fold change /veh CMKLR1 (11741424_a_at) / RFU LOC101060620 /// MAPK8IP1 (11723275_at) / Fold change /veh LOC101060620 /// MAPK8IP1 (11723275_at) / RFU SPTSSB (11747773_x_at) / Fold change /veh SPTSSB (11747773_x_at) / RFU PRSS12 (11739890_at) / Fold change /veh PRSS12 (11739890_at) / RFU BIN1 (11741810_x_at) / Fold change /veh BIN1 (11741810_x_at) / RFU WNT11 (11732464_a_at) / Fold change /veh WNT11 (11732464_a_at) / RFU C10orf10 (11716521_a_at) / Fold change /veh C10orf10 (11716521_a_at) / RFU C5orf56 (11738089_at) / Fold change /veh C5orf56 (11738089_at) / RFU CYB561 (11721691_x_at) / Fold change /veh CYB561 (11721691_x_at) / RFU ANKRD19P (11752326_a_at) / Fold change /veh ANKRD19P (11752326_a_at) / RFU OR2T12 /// OR2T33 /// OR2T8 (11738714_s_at) / Fold change /veh OR2T12 /// OR2T33 /// OR2T8 (11738714_s_at) / RFU VCAN (11748164_a_at) / Fold change /veh VCAN (11748164_a_at) / RFU JSRP1 (11732532_at) / Fold change /veh JSRP1 (11732532_at) / RFU KRTAP10-11 (11738290_x_at) / Fold change /veh KRTAP10-11 (11738290_x_at) / RFU MYO3A (11730013_a_at) / Fold change /veh MYO3A (11730013_a_at) / RFU EBF3 (11725865_a_at) / Fold change /veh EBF3 (11725865_a_at) / RFU CAMK2N1 (11719241_x_at) / Fold change /veh CAMK2N1 (11719241_x_at) / RFU C5orf56 (11738088_a_at) / Fold change /veh C5orf56 (11738088_a_at) / RFU OLFML3 (11715873_a_at) / Fold change /veh OLFML3 (11715873_a_at) / RFU LOC100653217 /// NTM (11731650_a_at) / Fold change /veh LOC100653217 /// NTM (11731650_a_at) / RFU MAPK11 (11762145_a_at) / Fold change /veh MAPK11 (11762145_a_at) / RFU FIZ1 (11724087_x_at) / Fold change /veh FIZ1 (11724087_x_at) / RFU OASL (11726364_x_at) / Fold change /veh OASL (11726364_x_at) / RFU SOX15 (11748057_x_at) / Fold change /veh SOX15 (11748057_x_at) / RFU CD79A (11719716_a_at) / Fold change /veh CD79A (11719716_a_at) / RFU HIST1H1D (11736915_at) / Fold change /veh HIST1H1D (11736915_at) / RFU CASKIN2 (11723855_a_at) / Fold change /veh CASKIN2 (11723855_a_at) / RFU LOC730098 (11760151_x_at) / Fold change /veh LOC730098 (11760151_x_at) / RFU OR4N2 (11742367_at) / Fold change /veh OR4N2 (11742367_at) / RFU PRRT2 (11749266_a_at) / Fold change /veh PRRT2 (11749266_a_at) / RFU SNX32 (11753110_a_at) / Fold change /veh SNX32 (11753110_a_at) / RFU CDHR5 (11726645_a_at) / Fold change /veh CDHR5 (11726645_a_at) / RFU RCAN1 (11760418_a_at) / Fold change /veh RCAN1 (11760418_a_at) / RFU FAM167A (11723789_a_at) / Fold change /veh FAM167A (11723789_a_at) / RFU FAM26E (11764081_at) / Fold change /veh FAM26E (11764081_at) / RFU ISYNA1 (11749810_s_at) / Fold change /veh ISYNA1 (11749810_s_at) / RFU ACY1 (11761880_at) / Fold change /veh ACY1 (11761880_at) / RFU 11764098_at / Fold change /veh 11764098_at / RFU SAMD14 (11745864_x_at) / Fold change /veh SAMD14 (11745864_x_at) / RFU NPB (11741838_a_at) / Fold change /veh NPB (11741838_a_at) / RFU TMPRSS6 (11731388_a_at) / Fold change /veh TMPRSS6 (11731388_a_at) / RFU KRTAP10-2 (11738614_at) / Fold change /veh KRTAP10-2 (11738614_at) / RFU ARHGAP8 /// PRR5-ARHGAP8 (11727945_x_at) / Fold change /veh ARHGAP8 /// PRR5-ARHGAP8 (11727945_x_at) / RFU KRTAP5-7 /// NADSYN1 (11734609_at) / Fold change /veh KRTAP5-7 /// NADSYN1 (11734609_at) / RFU RASL12 (11751679_a_at) / Fold change /veh RASL12 (11751679_a_at) / RFU CDKN2B (11736163_a_at) / Fold change /veh CDKN2B (11736163_a_at) / RFU PRF1 (11729649_at) / Fold change /veh PRF1 (11729649_at) / RFU, ZNF638 /// ZNF638-IT1 / Fold change vs veh, ZNF638 /// ZNF638-IT1 / RFU, PANK3 / Fold change vs veh, PANK3 / RFU, SH3YL1 / Fold change vs veh, SH3YL1 / RFU, ZEB2 / Fold change vs veh, ZEB2 / RFU, NRIP1 / Fold change vs veh, NRIP1 / RFU, PTTG1IP / Fold change vs veh, PTTG1IP / RFU, CAPN2 / Fold change vs veh, CAPN2 / RFU, MED14 / Fold change vs veh, MED14 / RFU, SNORA58 / Fold change vs veh, SNORA58 / RFU, C1orf63 / Fold change vs veh, C1orf63 / RFU, LRRFIP1 / Fold change vs veh, LRRFIP1 / RFU, NDUFAF7 / Fold change vs veh, NDUFAF7 / RFU, SLC12A2 / Fold change vs veh, SLC12A2 / RFU, IBTK / Fold change vs veh, IBTK / RFU, ESF1 / Fold change vs veh, ESF1 / Fold change vs veh, TMEM50B / RFU, TAOK1 / Fold change vs veh, TAOK1 / RFU, ACBD3 / Fold change vs veh, ACBD3 / RFU, TMA16 / Fold change vs veh, TMA16 / RFU, RWDD3 / Fold change vs veh, RWDD3 / RFU, BCAT1 / Fold change vs veh, BCAT1 / RFU, EDEM3 / Fold change vs veh, EDEM3 / RFU, TMEM33 / Fold change vs veh, TMEM33 / RFU, WDR75 / Fold change vs veh, WDR75 / RFU, AHCTF1 / Fold change vs veh, AHCTF1 / RFU, TFRC / Fold change vs veh, TFRC / RFU, ZDHHC17 / Fold change vs veh, ZDHHC17 / RFU, NOM1 / Fold change vs veh, NOM1 / RFU, ARL8B / Fold change vs veh, ARL8B / RFU, ZBTB11 / Fold change vs veh, ZBTB11 / RFU, TAMM41 / Fold change vs veh, TAMM41 / RFU, KIAA1704 /// LOC100996395 / Fold change vs veh, KIAA1704 /// LOC100996395 / RFU, ING1 / Fold change vs veh, ING1 / RFU, TRMT61B / Fold change vs veh, TRMT61B / RFU, FUBP3 / Fold change vs veh, FUBP3 / RFU, TP53 / Fold change vs veh, TP53 / RFU, TNKS2 / Fold change vs veh, TNKS2 / RFU, ZFP14 / Fold change vs veh, ZFP14 / RFU, ACTR2 / Fold change vs veh, ACTR2 / RFU, PPP3R1 / Fold change vs veh, PPP3R1 / RFU, PIK3R1 / Fold change vs veh, PIK3R1 / RFU, HNRNPA1 / Fold change vs veh, HNRNPA1 / RFU, RNF170 / Fold change vs veh, RNF170 / RFU, ZNF28 / Fold change vs veh, ZNF28 / RFU, RNGTT / Fold change vs veh, RNGTT / RFU, OGT / Fold change vs veh, OGT / RFU, BRD1 / Fold change vs veh, BRD1 / RFU, MARS / Fold change vs veh, MARS / RFU, ZNF655 / Fold change vs veh, ZNF655 / RFU, FAHD1 / Fold change vs veh, FAHD1 / RFU, BDP1 / Fold change vs veh, BDP1 / RFU, LRRCC1 / Fold change vs veh, LRRCC1 / RFU, ARID1A / Fold change vs veh, ARID1A / RFU, ZNF146 / Fold change vs veh, ZNF146 / RFU, ZNF330 / Fold change vs veh, ZNF330 / RFU, GPN3 / Fold change vs veh, GPN3 / RFU, C9orf123 / Fold change vs veh, C9orf123 / RFU, N4BP2L2 / Fold change vs veh, N4BP2L2 / RFU, ARFIP1 / Fold change vs veh, ARFIP1 / RFU, FAM179B / Fold change vs veh, FAM179B / RFU, BCL10 / Fold change vs veh, BCL10 / RFU, UHRF1BP1L / Fold change vs veh, UHRF1BP1L / RFU, BET1 / Fold change vs veh, BET1 / RFU, CNOT2 / Fold change vs veh, CNOT2 / RFU, ZNF268 / Fold change vs veh, ZNF268 / Fold change vs veh, ZNF507 / RFU, DGCR2 / Fold change vs veh, DGCR2 / RFU, WDSUB1 / Fold change vs veh, WDSUB1 / Fold change vs veh, HSP90B1 /// MIR3652 / RFU, ADSS / Fold change vs veh, ADSS / RFU, GK / Fold change vs veh, GK / RFU, ZNF148 / Fold change vs veh, ZNF148 / RFU, TAF9 / Fold change vs veh, TAF9 / RFU, SLC1A5 / Fold change vs veh, SLC1A5 / RFU, SLMO2 / Fold change vs veh, SLMO2 / RFU, ABCC4 / Fold change vs veh, ABCC4 / RFU, LOC101060439 /// RAP1B / Fold change vs veh, LOC101060439 /// RAP1B / RFU, RFX7 / Fold change vs veh, RFX7 / RFU, GTPBP10 / Fold change vs veh, GTPBP10 / RFU, CNEP1R1 / Fold change vs veh, CNEP1R1 / RFU, BIVM-ERCC5 /// ERCC5 / Fold change vs veh, BIVM-ERCC5 /// ERCC5 / RFU, ILF3 / Fold change vs veh, ILF3 / RFU 11762660_at / Fold change /veh 11762660_at / RFU VCAN (11757783_s_at) / Fold change /veh VCAN (11757783_s_at) / RFU DDX43 (11728927_at) / Fold change /veh DDX43 (11728927_at) / RFU KRT8 (11758188_x_at) / Fold change /veh KRT8 (11758188_x_at) / RFU NKD1 (11759106_at) / Fold change /veh NKD1 (11759106_at) / RFU SRD5A1 (11742802_a_at) / Fold change /veh SRD5A1 (11742802_a_at) / RFU TPSAB1 /// TPSB2 (11721975_s_at) / Fold change /veh TPSAB1 /// TPSB2 (11721975_s_at) / RFU GSTM3 (11746129_a_at) / Fold change /veh GSTM3 (11746129_a_at) / RFU IL23R (11737362_x_at) / Fold change /veh IL23R (11737362_x_at) / RFU TMEM51 (11727254_a_at) / Fold change /veh TMEM51 (11727254_a_at) / RFU PIWIL2 (11732686_x_at) / Fold change /veh PIWIL2 (11732686_x_at) / RFU ORM1 (11744905_x_at) / Fold change /veh ORM1 (11744905_x_at) / RFU CCDC152 (11743942_at) / Fold change /veh CCDC152 (11743942_at) / RFU ECM1 (11717891_a_at) / Fold change /veh ECM1 (11717891_a_at) / RFU IL23R (11748794_a_at) / Fold change /veh IL23R (11748794_a_at) / RFU TNFAIP8L3 (11732012_x_at) / Fold change /veh TNFAIP8L3 (11732012_x_at) / RFU MBOAT4 (11741988_at) / Fold change /veh MBOAT4 (11741988_at) / RFU 11764193_at / Fold change /veh 11764193_at / RFU TMEM53 (11763286_at) / Fold change /veh TMEM53 (11763286_at) / RFU MAGEB2 (11727129_at) / Fold change /veh MAGEB2 (11727129_at) / RFU TMEM200A (11744735_a_at) / Fold change /veh TMEM200A (11744735_a_at) / RFU CCDC152 (11751479_a_at) / Fold change /veh CCDC152 (11751479_a_at) / RFU FAM211A (11726209_a_at) / Fold change /veh FAM211A (11726209_a_at) / RFU RGS16 (11746705_a_at) / Fold change /veh RGS16 (11746705_a_at) / RFU VCAN (11755009_s_at) / Fold change /veh VCAN (11755009_s_at) / RFU RHOB (11743442_s_at) / Fold change /veh RHOB (11743442_s_at) / RFU RGS16 (11720943_a_at) / Fold change /veh RGS16 (11720943_a_at) / RFU RGS16 (11720944_at) / Fold change /veh RGS16 (11720944_at) / RFU, VPS4B / Fold change vs veh, VPS4B / RFU, CREB1 / Fold change vs veh, CREB1 / RFU, DNAJC13 / Fold change vs veh, DNAJC13 / RFU, GNAQ / Fold change vs veh, GNAQ / RFU, CDK5R1 / Fold change vs veh, CDK5R1 / RFU, ZRANB3 / Fold change vs veh, ZRANB3 / RFU, CUL4A / Fold change vs veh, CUL4A / RFU, CCNY / Fold change vs veh, CCNY / RFU, UFL1 / Fold change vs veh, UFL1 / RFU, COG3 / Fold change vs veh, COG3 / RFU, DIAPH2 / Fold change vs veh, DIAPH2 / RFU, SKA2 / Fold change vs veh, SKA2 / RFU, AFF3 / Fold change vs veh, AFF3 / RFU, LMF1 / Fold change vs veh, LMF1 / RFU, IPO11 / Fold change vs veh, IPO11 / RFU, DFFB / Fold change vs veh, DFFB / RFU, FOXP1 / Fold change vs veh, FOXP1 / RFU, CARD8 / Fold change vs veh, CARD8 / RFU, STRN3 / Fold change vs veh, STRN3 / RFU, ADK / Fold change vs veh, ADK / RFU, RASSF2 / Fold change vs veh, RASSF2 / RFU, WIPF1 / Fold change vs veh, WIPF1 / RFU, LARP1B / Fold change vs veh, LARP1B / RFU, RASA1 / Fold change vs veh, RASA1 / RFU, RB1 / Fold change vs veh, RB1 / RFU, PPFIA1 / Fold change vs veh, PPFIA1 / RFU, MAT2A / Fold change vs veh, MAT2A / RFU, CCT5 / Fold change vs veh, CCT5 / RFU, WDR92 / Fold change vs veh, WDR92 / RFU, CUX1 / Fold change vs veh, CUX1 / RFU, TTC7A / Fold change vs veh, TTC7A / RFU, TMEM135 / Fold change vs veh, TMEM135 / RFU, DEPTOR / Fold change vs veh, DEPTOR / RFU, CPM / Fold change vs veh, CPM / RFU, DNAJB6 / Fold change vs veh, DNAJB6 / RFU, CACNA2D3 / Fold change vs veh, CACNA2D3 / RFU, DTX4 / Fold change vs veh, DTX4 / RFU, TFCP2 / Fold change vs veh, TFCP2 / RFU, GMCL1 /// GMCL1P1 / Fold change vs veh, GMCL1 /// GMCL1P1 / RFU, AEBP2 / Fold change vs veh, AEBP2 / RFU, SNHG1 /// SNORD22 /// SNORD25 /// SNORD26 /// SNORD27 /// SNORD28 /// SNORD29 /// SNORD31 / Fold change vs veh, SNHG1 /// SNORD22 /// SNORD25 /// SNORD26 /// SNORD27 /// SNORD28 /// SNORD29 /// SNORD31 / Fold change (Aza/veh), C12orf56 (ProbeSet 11735607_a_at) / Fold change (ACY-1035/veh), C12orf56 (ProbeSet 11735607_a_at) / Fold change (Aza/veh), FGFR1OP (ProbeSet 11751329_s_at) / Fold change (ACY-1035/veh), FGFR1OP (ProbeSet 11751329_s_at) / Fold change (Aza/veh), VPS36 (ProbeSet 11739960_a_at) / Fold change (ACY-1035/veh), VPS36 (ProbeSet 11739960_a_at) / RFU SYPL1 (11715823_x_at) / Fold change /veh SYPL1 (11715823_x_at) / RFU IGFBP7 (11715501_s_at) / Fold change /veh IGFBP7 (11715501_s_at) / RFU REEP3 (11722064_at) / Fold change /veh REEP3 (11722064_at) / RFU IGLL1 (11728026_x_at) / Fold change /veh IGLL1 (11728026_x_at): dose or concentration left out as unconfirmed. The note with it: MV-4-11 cells, 48 hours.

For the molecule `Nc1ncn([C@@H]2O[C@H](CO)[C@@H](O)[C@H]2O)c(=O)n1` [azacitidine], the “RFU NR4A2 (11747474_a_at)” value was determined as 22.61 RFU.
